Assay results from publication PMC12442081, “Combating Fuel Biocontamination: Tailored Antimicrobial Peptides and an Innovative Delivery Strategy” (ACS Applied Bio Materials, 2025).
Where no end group is shown, it is not given here.

What was measured:
[1] = tested on: Bacillus licheniformis (BL) ATCC 14580; assay type: cell-based; settings: ATCC 14580
Description: (§1) All of the bacterial species were grown overnight at 37 °C in LB broth. 10^7 CFU/mL of cells were resuspended in fresh culture and grown until the mid log phase. , The bacterial cells were adjusted to a concentration of 5 × 10^5 CFU/mL to quantify the MIC. Equal volumes of the respective bacterial cultures were incubated with the serially diluted peptides in 96-well microtiter plate and incubated overnight at 37 °C in ambient air. Microorganisms without peptides were treated as the positive control, while uninoculated broth was used as the negative control. The MIC was taken as the lowest peptide concentration at which observable bacteria growth was inhibited, as measured by a microplate reader (Biotek Synergy H1 microplate reader). Experiments were performed in triplicates, and the mean MIC values were determined. A similar study was performed to understand the effect of peptide purity, i.e., ranging from 70 to 95%, on the peptide MIC.

[2] = tested on: Dermacoccus nishinomiyaensis (DN) ATCC 29093; assay type: cell-based
Description: as §1

[3] = tested on: Kocuria rosea (KR) ATCC 186; assay type: cell-based
Description: as §1

[4] = tested on: Micrococcus yunnanensis (MY) ATCC 12698; assay type: cell-based
Description: as §1

[5] = tested on: Sphingomonas paucimobilis (SP); assay type: cell-based
Description: as §1

[6] = HPLC retention time as a function of peptide hydrophobicity; assay type: physicochemical; settings: chromatographic, Polaris 5 C18-A reverse phase, 0.1% TFA water / 0.1% TFA acetonitrile gradient, 30 min, 300 μM peptide
Description: The purity of the peptides was ascertained by high-performance liquid chromatography (HPLC) using Polaris 5 C18-A […] × 4.6 mm reverse phase Zorbax columns from Agilent Technologies. The buffer system contained 0.1% (v/v) TFA in 100% water and 0.1% (v/v) TFA in 100% acetonitrile. Each peptide sample contained 300 μM peptides dissolved in an acetonitrile–water (1:4) mixture. A constant gradient of the two solvent systems was used to generate the chromatogram for 30 min after sample injection.

[7] = tested on: Bacillus licheniformis (BL); test: Effectiveness of peptides on spiked fuel samples (aqueous layer); assay type: cell-based; parameters: key: (+) =1 (implying peptide activity in fuel environment); (X) = 0 (implying no activity in the desired range, indicated by microbial proliferation); Fuel x = -1(implying no activity in fuel environment); settings: initial screening in spiked fuel
Description: (§2) To study the partitioning of microbes in fuel tanks, filter-sterilized fuel was mixed with BH medium in a 1:1 (v/v) ratio. The inoculum was added to the aqueous phase at the bottom to simulate growth in the aqueous layer of fuel tanks and incubated aerobically at 30 °C for 30 days. Visible growth was assessed, and aliquots from both the aqueous and fuel phases were plated on nutrient agar plates to evaluate microbial growth. Peptides were initially added to the aqueous layer of microbially spiked fuel samples for screening the effectiveness in the fuel environment. The study was further extended over a longer duration, and incubated under aerobic conditions at 30 °C for 30 days. Microbial growth was monitored at regular intervals by plating aliquots from the aqueous layer on the nutrient agar plates.
(§3) The engineered peptides were administered at their respective MICs to the aqueous layer of simulated fuel samples, and samples from both the aqueous and solvent (fuel) layers were removed at intervals of 7, 14, 21, and 30 days and plated on LBA plates to assess cell viability (Table S5).

[8] = tested on: Dermacoccus nishinomiyaensis (DN); test: as above; assay type: cell-based; parameters: key: (+) =1 (implying peptide activity in fuel environment); (X) = 0 (implying no activity in the desired range, indicated by microbial proliferation); Fuel x = -1(implying no activity in fuel environment); settings: initial screening in spiked fuel
Description: as §2, §3

Hormoconis resinae (HR) = test: as above; assay type: cell-based; parameters: key: (+) =1 (implying peptide activity in fuel environment); (X) = 0 (implying no activity in the desired range, indicated by microbial proliferation); Fuel x = -1(implying no activity in fuel environment); settings: initial screening in spiked fuel
Description: as §2, §3

Kocuria rosea (KR) = test: as above; assay type: cell-based; parameters: key: (+) =1 (implying peptide activity in fuel environment); (X) = 0 (implying no activity in the desired range, indicated by microbial proliferation); Fuel x = -1(implying no activity in fuel environment); settings: initial screening in spiked fuel
Description: as §2, §3

[9] = tested on: Macrococcus caseolyticus (MC); test: as above; assay type: cell-based; parameters: key: (+) =1 (implying peptide activity in fuel environment); (X) = 0 (implying no activity in the desired range, indicated by microbial proliferation); Fuel x = -1(implying no activity in fuel environment); settings: initial screening in spiked fuel
Description: as §2, §3

[10] = tested on: Micrococcus yunnanensis (MY); test: as above; assay type: cell-based; parameters: key: (+) =1 (implying peptide activity in fuel environment); (X) = 0 (implying no activity in the desired range, indicated by microbial proliferation); Fuel x = -1(implying no activity in fuel environment); settings: initial screening in spiked fuel
Description: as §2, §3

[11] = tested on: Pseudomonas aeruginosa (PA); test: as above; assay type: cell-based; parameters: key: (+) =1 (implying peptide activity in fuel environment); (X) = 0 (implying no activity in the desired range, indicated by microbial proliferation); Fuel x = -1(implying no activity in fuel environment); settings: initial screening in spiked fuel
Description: as §2, §3

Roseomonas mucosa (RM) = test: as above; assay type: cell-based; parameters: key: (+) =1 (implying peptide activity in fuel environment); (X) = 0 (implying no activity in the desired range, indicated by microbial proliferation); Fuel x = -1(implying no activity in fuel environment); settings: initial screening in spiked fuel
Description: as §2, §3

[12] = tested on: Sphingomonas paucimobilis (SP); test: as above; assay type: cell-based; parameters: key: (+) =1 (implying peptide activity in fuel environment); (X) = 0 (implying no activity in the desired range, indicated by microbial proliferation); Fuel x = -1(implying no activity in fuel environment); settings: initial screening in spiked fuel
Description: as §2, §3

[13] = tested on: microbial clusters MY, KR, DN, MC, BL, RM, SP, PA, HR; test: Broad-spectrum activity score (in-house scoring matrix); settings: sum over 9 microbial clusters: (+) = 1, (X) = 0, Fuel x = -1
Description: Table S4. Summarizing the broad-spectrum activity of the peptides, considering the MIC value/ efficacy to control microbial growth upon fuel co-incubation
Peptides Bacterial clusters Fungal
Actinobacteria Firmicutes Proteobacteria Asco- […]
Peptides identified based on the scoring matrix, where (+) =1 (implying peptide activity in fuel environment); (X) = 0 (implying no activity in the desired range, indicated by microbial proliferation); Fuel x = -1(implying no activity in fuel environment).
Clearly, P17 is the best performing peptide in vitro across diverse microbial phyla as well as when incubated in the fuel environment. Based on the activity of the selected peptides, the best

[14] = tested on: Pseudomonas aeruginosa (PA) ATCC 39327; assay type: cell-based; settings: ATCC 39327
Description: as §1

[15] = tested on: Hormoconis resinae (HR) ATCC 20267; assay type: cell-based
Description: as §1
The same experimental procedures that were conducted for the antibacterial assay were used to determine the MIC of the peptides against the fungal strain, H. resinae.

[16] = tested on: Macrococcus caseolyticus (MC) ATCC 13548; assay type: cell-based
Description: as §1

| Compound | MIC [1] [µM] | MIC [2] [µM] | MIC [3] [µM] | MIC [4] [µM] | MIC [5] [µM] | R t, retention time of peptide on HPLC column as a function of peptide hydrophobicity [6] [min] | activity considering MIC value/efficacy upon fuel co-incubation [7] | activity considering MIC value/efficacy upon fuel co-incubation [8] | activity considering MIC value/efficacy upon fuel co-incubation (Hormoconis resinae (HR)) | activity considering MIC value/efficacy upon fuel co-incubation (Kocuria rosea (KR)) | activity considering MIC value/efficacy upon fuel co-incubation [9] | activity considering MIC value/efficacy upon fuel co-incubation [10] | activity considering MIC value/efficacy upon fuel co-incubation [11] | activity considering MIC value/efficacy upon fuel co-incubation (Roseomonas mucosa (RM)) | activity considering MIC value/efficacy upon fuel co-incubation [12] | Score [13] | MIC [14] [µM] | MIC [15] [µM] | MIC [16] [µM] |
| --- | --- | --- | --- | --- | --- | --- | --- | --- | --- | --- | --- | --- | --- | --- | --- | --- | --- | --- | --- |
| CC[C@H](C)[C@H](N)C(=O)N[C@@H](CC(C)C)C(=O)N[C@@H](CC(C)C)C(=O)N[C@@H](Cc1c[nH]c2ccccc12)C(=O)N[C@@H](CCCCN)C(=O)N[C@@H](Cc1c[nH]c2ccccc12)C(=O)N1CCC[C@H]1C(=O)N[C@@H](Cc1c[nH]c2ccccc12)C(=O)N[C@@H](Cc1c[nH]c2ccccc12)C(=O)N1CCC[C@H]1C(=O)N[C@@H](Cc1c[nH]c2ccccc12)C(=O)N[C@@H](CCCNC(=N)N)C(=O)N[C@@H](CCCNC(=N)N)C(=O)O [P19] | 1.9 | 0.9 | 3.9 | 0.9 | 0.9 | 13.667 | + | + | X | Fuel x | X | + | X | X | + | 3 | – | – | – |
| ILPWKWPWWVWRR [P5] | 0.9 | 0.9 | 0.9 | 0.9 | 0.9 | 12.045 | + | + | X | Fuel x | X | + | X | X | + | 3 | 31.25 | 62.5 | – |
| CC[C@H](C)[C@H](N)C(=O)N[C@@H](CC(C)C)C(=O)N[C@H](C(=O)N[C@@H](Cc1c[nH]c2ccccc12)C(=O)N[C@@H](CCCCN)C(=O)N[C@@H](Cc1c[nH]c2ccccc12)C(=O)N1CCC[C@H]1C(=O)N[C@@H](Cc1c[nH]c2ccccc12)C(=O)N[C@@H](Cc1c[nH]c2ccccc12)C(=O)N1CCC[C@H]1C(=O)N[C@@H](Cc1c[nH]c2ccccc12)C(=O)N[C@@H](CCCNC(=N)N)C(=O)N[C@@H](CCCNC(=N)N)C(=O)O)[C@@H](C)CC [P18] | 1.9 | 0.9 | 0.9 | 0.9 | 0.9 | 13.314 | + | Fuel x | X | + | X | + | X | X | + | 3 | – | – | 31.25 |
| CC[C@H](C)[C@H](N)C(=O)N[C@@H](CC(C)C)C(=O)N[C@@H](Cc1ccccc1)C(=O)N[C@@H](Cc1c[nH]c2ccccc12)C(=O)N[C@@H](CCCCN)C(=O)N[C@@H](Cc1c[nH]c2ccccc12)C(=O)N1CCC[C@H]1C(=O)N[C@@H](Cc1c[nH]c2ccccc12)C(=O)N[C@@H](Cc1c[nH]c2ccccc12)C(=O)N1CCC[C@H]1C(=O)N[C@@H](Cc1c[nH]c2ccccc12)C(=O)N[C@@H](CCCNC(=N)N)C(=O)N[C@@H](CCCNC(=N)N)C(=O)O [P16] | 0.9 | – | 1.9 | 0.9 | 0.9 | 14.075 | + | X | X | + | X | + | X | X | + | 4 | – | – | 125 |
| ILPWKWVWWPWRR [P8] | 1.9 | 0.9 | – | 0.9 | 3.91 | 12.168 | + | Fuel x | X | X | X | + | X | X | + | 2 | 15.625 | 31.25 | – |
